One test deals with T98G cells. As to the kind of experiment: In vitro potency in glioblastoma cells, ATPlite 1Step (NTRC Oncolines). It is filed as cell-based. Particulars: Homo sapiens, FIG. 14A, read-out: In vitro potency (anti-cancer activity). An excerpt:
(§1) FIG. 14A-14E show the efficacy of Compound 1 in glioblastoma cell lines in vitro and in a glioblastoma rat model (C6). A) In vitro potency of Compound 1 in four different glioblastoma cell lines as evaluated by Realtime-Glo™ assay (C6, and U87 cells) or ATPlite 1Step™ Perkin Elmer (performed by NTRC Oncolines; T98G and A-172 cells). B) Study design overview: C6 rat glioma cells (3×10^5) were implanted into the right entorhinal cortex/subiculum region of male Sprague Dawley rats and tumor burden was assessed 14 days post inoculation using MRI and animals randomized into […] (4) groups (vehicle control, 5 mg/kg, 10 mg/kg, and 20 mg/kg Compound 1) with 4 animals per group. […] C) Body weights were measured every two days. […]
(§2) Glioblastoma (GBM) is the most common and highly malignant form of primary brain tumor with a poor prognosis despite advances in treatments. […] Accordingly, the in vitro potency of Compound 1 was examined in four different glioblastoma cell lines as evaluated by Realtime-Glo™ assay (C6, and U87 cells) or ATPlite 1Step™ Perkin Elmer (performed by NTRC Oncolines; T98G and A-172 cells). […] Therefore, the in vivo tumor activity of Compound 1 was next assessed in Sprague Dawley rats implanted with C6 rat glioma cells into the right entorhinal cortex/subiculum region (AP: −7 mm; ML: 4.5 mm, DV: 5 mm). […]
(ATP-based viability assays read luminescence as a measure of living cells.)

Another test relates to A-172 cells. The description is as above. It is filed as cell-based. Particulars: Homo sapiens, FIG. 14A, read-out: In vitro potency (anti-cancer activity).
Description: as §1, §2

The test system of a further test is C6 rat glioma cells. As to the kind of experiment: Orthotopic syngeneic C6 glioma model. It is filed as in vivo, Sprague Dawley rats.
Description: as §1, §2

A further test deals with COLO205 cells. In words: In vitro potency, ATPlite 1Step (NTRC Oncolines). It is filed as cell-based. Particulars: Homo sapiens, COLO 205. As for the experimental part:
FIG. 11A-11E show the efficacy of Compound 1 in a colorectal cancer xenograft model (COLO205). A) In vitro potency of Compound 1 in COLO205 cells as evaluated by ATPlite 1Step™ Perkin Elmer (performed by NTRC Oncolines). B) COLO205 cells were implanted subcutaneously in nude mice and tumors were allowed to grow to a volume of 210 mm3 followed by randomization of animals into three (3) groups (vehicle control, 75 mg/kg, 150 mg/kg Compound 1) with 12 animals per group. A Compound 1 solid dispersion was prepared prior to each dosing and administered by oral gavage two times a day (BID). Mean tumor volume of each group over time and the growth of tumor in each individual animal was graphed. For each individual animal of […] group TGI (%) was calculated based on the tumor growth inhibition of individual tumor at each given day of the study compared to the average of the group for that given day of the study. P-values were calculated using two-tailed distribution and two-sample equal variance (homoscedastic) for each group treated with Compound 1 for each given day of the study in reference to vehicle control. […] The level of two biomarkers, pHH3 and CCNB1 in each tissue was measured and graphed as the Min-to-Max plot and scatter plot of the level of each biomarker. […] E) Body weight of each individual animal was measured on each day of the study and graphed using Graphpad Prism. […]

Consider `COc1ccccc1-c1nc(CNC(=O)c2ccccc2OC(F)F)n[nH]1` [Compound 1, 2-(difluoromethoxy)-N-[[5-(2-methoxyphenyl)-1H-1,2,4-triazol-3-yl]methyl]benzamide], for which the IC50 was 39 nM with T98G cells, 48 nM in the test with A-172 cells and 67 nM with COLO205 cells (COLO205). The “Animals still alive at day 60 post-treatment initiation” value with C6 rat glioma cells (2 in each treatment group (5, 10, 20 mg/kg)) is reported as “six”. Further, the “MRI imaging of surviving animals” value with C6 rat glioma cells (FIG. 14E) is “reduction in tumor size and tumor fragmentation”. In addition, in the test with COLO205 cells (COLO205, in vitro, read-out: Maximum effect (%)), the Emax came to 95%.
